Some results are limits rather than exact numbers.

The subject of one assay is recombinant NL4-3 virus (Renilla luciferase in nef, Gag P373S; NLRluc) in MT-2 cells. Briefly: whole plant or invertebrate. The settings on record: Renilla, NL43, luciferase activity in cells infected for 4-5 days with NLRluc recombinants, serial dilutions of inhibitor; class symbols (key in Table 1); read-out: EC50. It counts as cell-based, HIV. In a few lines:
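MT-2 cells in RPMI 1640 with 10% heat-inactivated FBS were infected with the reporter virus, made by transfecting the proviral clone into 293T cells, and cultured 4-5 days with serial inhibitor dilutions. Antiviral activity was quantified from Renilla luciferase activity measured in lysed cells.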
On to `C=C(C)[C@@H]1CC[C@]2(NC(=O)CN3CCSCC3)CC[C@]3(C)[C@H](CC[C@@H]4[C@@]5(C)CC=C(c6ccc(C(=O)O)cc6)C(C)(C)[C@@H]5CC[C@]43C)[C@@H]12` [Example 98, 4-((1R,3aS,5aR,5bR,7aR,11aS,11bR,13aR,13bR)-5a,5b,8,8,11a-pentamethyl-1-(prop-1-en-2-yl)-3a-(2-thiomorpholinoacetamido)-2,3,3a,4,5,5a,5b,6,7,7a,8,11,11a,11b,12,13,13a,13b-octadecahydro-1H-cyclopenta[a]chrysen-9-yl)benzoic acid], for which the EC50 (commonly the midpoint of the concentration-response curve) was less than 100 nM.
Turning to `C=C(C)[C@@H]1CC[C@]2(NC(=O)C(CC3CCCCC3)N3CCS(=O)(=O)CC3)CC[C@]3(C)[C@H](CC[C@@H]4[C@@]5(C)CC=C(c6ccc(C(=O)O)cc6)C(C)(C)[C@@H]5CC[C@]43C)[C@@H]12` (stereo partly drawn) [Example 99, benzoic acid, 4-[(1R,3aS,5aR,5bR,7aR,11aS,11bR,13aR,13bR)-3a-[[3-cyclohexyl-2-(1,1-dioxido-4-thiomorpholinyl)-1-oxopropyl]amino]-2,3,3a,4,5,5a,5b,6,7,7a,8,11,11a,11b,12,13,13a,13b-octadecahydro-5a,5b,8,8,11a-pentamethyl-1-(1-methylethenyl)-1H-cyclopenta[a]chrysen-9-yl]], the EC50 was less than 100 nM.
As to `C=C(C)[C@@H]1CC[C@]2(NC(=O)CN(C)C3CCS(=O)(=O)C3)CC[C@]3(C)[C@H](CC[C@@H]4[C@@]5(C)CC=C(c6ccc(C(=O)O)cc6)C(C)(C)[C@@H]5CC[C@]43C)[C@@H]12` (stereo partly drawn) [Example 100, benzoic acid, 4-[(1R,3aS,5aR,5bR,7aR,11aS,11bR,13aR,13bR)-2,3,3a,4,5,5a,5b,6,7,7a,8,11,11a,11b,12,13,13a,13b-octadecahydro-5a,5b,8,8,11a-pentamethyl-1-(1-methylethenyl)-3a-[[[methyl(tetrahydro-1,1-dioxido-3-thienyl)amino]acetyl]amino]-1H-cyclopenta[a]chrysen-9-yl]], the EC50 was less than 100 nM.
The same measure, in the same setting: the value for `C=C(C)[C@@H]1CC[C@]2(NC(=O)Cc3cnccn3)CC[C@]3(C)[C@H](CC[C@@H]4[C@@]5(C)CC=C(c6ccc(C(=O)O)cc6)C(C)(C)[C@@H]5CC[C@]43C)[C@@H]12` [Example 102, 4-((1R,3aS,5aR,5bR,7aR,11aS,11bR,13aR,13bR)-5a,5b,8,8,11a-pentamethyl-1-(prop-1-en-2-yl)-3a-(2-(pyrazin-2-yl)acetamido)-2,3,3a,4,5,5a,5b,6,7,7a,8,11,11a,11b,12,13,13a,13b-octadecahydro-1H-cyclopenta[a]chrysen-9-yl)benzoic acid] was less than 100 nM.
Turning to `C=C(C)[C@@H]1CC[C@]2(NC(=O)Cn3cnnn3)CC[C@]3(C)[C@H](CC[C@@H]4[C@@]5(C)CC=C(c6ccc(C(=O)O)cc6)C(C)(C)[C@@H]5CC[C@]43C)[C@@H]12` [Example 103, 4-((1R,3aS,5aR,5bR,7aR,11aS,11bR,13aR,13bR)-3a-(2-(1H-tetrazol-1-yl)acetamido)-5a,5b,8,8,11a-pentamethyl-1-(prop-1-en-2-yl)-2,3,3a,4,5,5a,5b,6,7,7a,8,11,11a,11b,12,13,13a,13b-octadecahydro-1H-cyclopenta[a]chrysen-9-yl)benzoic acid], the EC50 was less than 100 nM.
The same measure, in the same setting: next, `C=C(C)[C@@H]1CC[C@]2(NC(=O)CN3C(=O)OCc4ccc(Cl)cc43)CC[C@]3(C)[C@H](CC[C@@H]4[C@@]5(C)CC=C(c6ccc(C(=O)O)cc6)C(C)(C)[C@@H]5CC[C@]43C)[C@@H]12` [Example 104, 4-((1R,3aS,5aR,5bR,7aR,11aS,11bR,13aR,13bR)-3a-(2-(7-chloro-2-oxo-2,4-dihydro-1H-benzo[d][1,3]oxazin-1-yl)acetamido)-5a,5b,8,8,11a-pentamethyl-1-(prop-1-en-2-yl)-2,3,3a,4,5,5a,5b,6,7,7a,8,11,11a,11b,12,13,13a,13b-octadecahydro-1H-cyclopenta[a]chrysen-9-yl)benzoic acid]: less than 100 nM; `C=C(C)[C@@H]1CC[C@]2(NC(=O)CN3CCOC3=O)CC[C@]3(C)[C@H](CC[C@@H]4[C@@]5(C)CC=C(c6ccc(C(=O)O)cc6)C(C)(C)[C@@H]5CC[C@]43C)[C@@H]12` [Example 105, 4-((1R,3aS,5aR,5bR,7aR,11aS,11bR,13aR,13bR)-5a,5b,8,8,11a-pentamethyl-3a-(2-(2-oxooxazolidin-3-yl)acetamido)-1-(prop-1-en-2-yl)-2,3,3a,4,5,5a,5b,6,7,7a,8,11,11a,11b,12,13,13a,13b-octadecahydro-1H-cyclopenta[a]chrysen-9-yl)benzoic acid]: less than 100 nM; `C=C(C)[C@@H]1CC[C@]2(NC(=O)CNCCO)CC[C@]3(C)[C@H](CC[C@@H]4[C@@]5(C)CC=C(c6ccc(C(=O)O)cc6)C(C)(C)[C@@H]5CC[C@]43C)[C@@H]12` [Example 106, 4-((1R,3aS,5aR,5bR,7aR,11aS,11bR,13aR,13bR)-3a-(2-(2-hydroxyethylamino)acetamido)-5a,5b,8,8,11a-pentamethyl-1-(prop-1-en-2-yl)-2,3,3a,4,5,5a,5b,6,7,7a,8,11,11a,11b,12,13,13a,13b-octadecahydro-1H-cyclopenta[a]chrysen-9-yl)benzoic acid]: less than 100 nM.
Same read-out and setting: the value for `C=C(C)[C@@H]1CC[C@]2(NC(=O)CN3C(=O)OC[C@@H]3c3ccccc3)CC[C@]3(C)[C@H](CC[C@@H]4[C@@]5(C)CC=C(c6ccc(C(=O)O)cc6)C(C)(C)[C@@H]5CC[C@]43C)[C@@H]12` [Example 107, 4-((1R,3aS,5aR,5bR,7aR,11aS,11bR,13aR,13bR)-5a,5b,8,8,11a-pentamethyl-3a-(2-((S)-2-oxo-4-phenyloxazolidin-3-yl)acetamido)-1-(prop-1-en-2-yl)-2,3,3a,4,5,5a,5b,6,7,7a,8,11,11a,11b,12,13,13a,13b-octadecahydro-1H-cyclopenta[a]chrysen-9-yl)benzoic acid] was less than 100 nM; that for `C=C(C)[C@@H]1CC[C@]2(NC(=O)CN[C@H](CO)c3ccccc3)CC[C@]3(C)[C@H](CC[C@@H]4[C@@]5(C)CC=C(c6ccc(C(=O)O)cc6)C(C)(C)[C@@H]5CC[C@]43C)[C@@H]12` [Example 108, 4-((1R,3aS,5aR,5bR,7aR,11aS,11bR,13aR,13bR)-3a-(2-((S)-2-hydroxy-1-phenylethylamino)acetamido)-5a,5b,8,8,11a-pentamethyl-1-(prop-1-en-2-yl)-2,3,3a,4,5,5a,5b,6,7,7a,8,11,11a,11b,12,13,13a,13b-octadecahydro-1H-cyclopenta[a]chrysen-9-yl)benzoic acid] was less than 100 nM; that for `C=C(C)[C@@H]1CC[C@]2(NC(=O)CN3CC[C@H](NC(=O)OC(C)(C)C)C3=O)CC[C@]3(C)[C@H](CC[C@@H]4[C@@]5(C)CC=C(c6ccc(C(=O)O)cc6)C(C)(C)[C@@H]5CC[C@]43C)[C@@H]12` [Example 109, 4-((1R,3aS,5aR,5bR,7aR,11aS,11bR,13aR,13bR)-3a-(2-((S)-3-(tert-butoxycarbonylamino)-2-oxopyrrolidin-1-yl)acetamido)-5a,5b,8,8,11a-pentamethyl-1-(prop-1-en-2-yl)-2,3,3a,4,5,5a,5b,6,7,7a,8,11,11a,11b,12,13,13a,13b-octadecahydro-1H-cyclopenta[a]chrysen-9-yl)benzoic acid] was less than 100 nM.
As for `C=C(C)[C@@H]1CC[C@]2(NC(=O)C(NC3CCS(=O)(=O)C3)C(C)C)CC[C@]3(C)[C@H](CC[C@@H]4[C@@]5(C)CC=C(c6ccc(C(=O)O)cc6)C(C)(C)[C@@H]5CC[C@]43C)[C@@H]12` (stereo partly drawn) [Example 112, benzoic acid, 4-[(1R,3aS,5aR,5bR,7aR,11aS,11bR,13aR,13bR)-2,3,3a,4,5,5a,5b,6,7,7a,8,11,11a,11b,12,13,13a,13b-octadecahydro-5a,5b,8,8,11a-pentamethyl-1-(1-methylethenyl)-3a-[[3-methyl-1-oxo-2-[(tetrahydro-1,1-dioxido-3-thienyl)amino]butyl]amino]-1H-cyclopenta[a]chrysen-9-yl]], the EC50 was less than 100 nM.
The same measure, in the same setting: next, `C=C(C)[C@@H]1CC[C@]2(NC(=O)C3CCCN3S(C)(=O)=O)CC[C@]3(C)[C@H](CC[C@@H]4[C@@]5(C)CC=C(c6ccc(C(=O)O)cc6)C(C)(C)[C@@H]5CC[C@]43C)[C@@H]12` (stereo partly drawn) [Example 113, 4-((1R,3aS,5aR,5bR,7aR,11aS,11bR,13aR,13bR)-5a,5b,8,8,11a-pentamethyl-3a-(1-(methylsulfonyl)pyrrolidine-2-carboxamido)-1-(prop-1-en-2-yl)-2,3,3a,4,5,5a,5b,6,7,7a,8,11,11a,11b,12,13,13a,13b-octadecahydro-1H-cyclopenta[a]chrysen-9-yl)benzoic acid]: less than 100 nM; `C=C(C)[C@@H]1CC[C@]2(NC(=O)[C@@H]3CC(F)(F)CN3C(=O)OC(C)(C)C)CC[C@]3(C)[C@H](CC[C@@H]4[C@@]5(C)CC=C(c6ccc(C(=O)O)cc6)C(C)(C)[C@@H]5CC[C@]43C)[C@@H]12` [Example 114, 4-((1R,3aS,5aR,5bR,7aR,11aS,11bR,13aR,13bR)-3a-((S)-1-(tert-butoxycarbonyl)-4,4-difluoropyrrolidine-2-carboxamido)-5a,5b,8,8,11a-pentamethyl-1-(prop-1-en-2-yl)-2,3,3a,4,5,5a,5b,6,7,7a,8,11,11a,11b,12,13,13a,13b-octadecahydro-1H-cyclopenta[a]chrysen-9-yl)benzoic acid]: less than 100 nM.

Staying with this assay, now noted: luciferase activity in cells infected for 4-5 days with NLRluc recombinants, serial dilutions of inhibitor; class symbols (key in Table 1); read-out: EC50.
Turning to `C=C(C)[C@@H]1CC[C@]2(NC(=O)CC(c3cccs3)N3CCS(=O)(=O)CC3)CC[C@]3(C)[C@H](CC[C@@H]4[C@@]5(C)CC=C(c6ccc(C(=O)O)cc6)C(C)(C)[C@@H]5CC[C@]43C)[C@@H]12` (stereo partly drawn) [Example 101], the EC50 was less than 100 nM.

Source of the values: patent US20140343000A1 (priority 2011, published 2014).
